“And” between values parts separate entries of the source, which are not always exact repeats. Equal values may be shown once. Read-outs that look alike come from different tables or passages of the source.
Tests used:
[1] = system: microbes in water sample (80% tap water 20% produced water); assay: Kill performance (log reduction) in water sample, 5 min exposure; format: cell-based; settings: exposure time 5 min
From the text: Synergy examples range from pH 0 to 12 at varied concentrations. Synergistic activity is defined as a technical effect that exceeds the addition of the cumulative performance of the materials in formulation.
As referred to in Table 8 the following commercially-available test substances were employed: POAA (15% POAA, 10% H2O2), PAA 1 (21% peracetic, 3.5% H2O2), POOA (0.5% POOA, 6.8% H2O2).

[2] = system: Nalidixic acid resistant E. coli O157:H7; assay: Reduction of E. coli on raw beef brisket, dip treatment; format: cell-based; settings: for CFU/cm2 / CFU/ml / Log CFU/cm2: replicates
From the text: Nalidixic acid resistant E. coli O157:H7 was used to evaluate the efficacy in treatment with performic acid composition on raw beef brisket according to the conditions shown in Table 32.

[3] = system: Various pathogens; format: cell-based; settings: for Result (Passing Requirement 5 log reduction): EN 13727
[4] = Performance of corrosion inhibitor in sea water and produced water systems (% protection); settings: 200 ppm active performic acid, 50 ppm corrosion inhibitor (PFA: no inhibitor)
Description: 200 ppm active of performic acid was added. 50 ppm of corrosion inhibitor was added for corrosion protection. % protection was plotted by comparison of the corrosion rate in the presence of corrosion inhibitor to the corrosion rate with no corrosion inhibitor addition (PFA or PFA-PW) as shown in Table 30.

[5] = system: microorganisms in produced water; assay: Microbial efficacy by ATP concentration (AccuCount) in produced water; format: cell-based; settings: PFA 5 ppm active, compounds 50 ppm product
Description: Microbial efficacy of PFA alone (5 ppm active) or PFA (5 ppm active) in conjunction with the compounds (50 ppm product) listed in the Table 20 below and in FIG. 13 were tested by measuring the ATP concentration in the untreated and treated produced water samples (using AccuCount technology). Reductions in bacterial numbers were tabulated as % kill for each experiment. The results are represented in FIG. 13 and in Table 20.

[6] = system: Enterococcus; assay: Bactericidal activity of PFA versus POAA; format: cell-based; settings: E. hirae ATCC 10541, 5 minutes, dirty conditions, 20° C.
From the text: (§1) Staphylococcus, Enterococcus and Pseudomonas pathogens were used to evaluate the micro efficacy of PFA in comparison to POAA.

[7] = system: Pseudomonas; assay: Bactericidal activity of PFA versus POAA; format: cell-based; settings: P. aeruginosa ATCC 15442, 5 minutes, dirty conditions, 20° C.
From the text: as §1

[8] = system: Staphylococcus; assay: Bactericidal activity of PFA versus POAA; format: cell-based; settings: S. aureus ATCC 6538, 5 minutes, dirty conditions, 20° C.
From the text: as §1

[9] = system: acid producing bacteria (APBs); assay: Biocidal performance on treated produced water, bug bottles serial dilution; format: cell-based; settings: PFA treatment of produced water
Description: Treatment of produced water with performic acid was evaluated using performic acid compositions containing a corrosion inhibitor. As shown in FIG. 28 (grey scale) the lighter color […] in the water, whereas the darker shading indicates no growth. Untreated has E5 bacteria/mL; 0.5 ppm PFA treated has E3 bacteria/mL. The bacterial bug bottles are specific in supporting growth of acid producing bacteria (APBs). Growth of APB is indicated by a color change from dark to light color (pink to yellow). 1 mL of initial inoculum was diluted 10 times in subsequent bottles. Therefore each bottle indicates a El bacteria/mL. Based on the results observed by growth/no growth of bacteria it can be concluded that PFA treatment results in at least a reduction of 2 log (equivalent of E2 bacteria/mL) bacteria.

[10] = system: L. monocytogenes (ATCC 19114, 19116 and 4594); assay: Low temperature disinfectant efficacy, log reduction; format: cell-based; settings: 4° C.; 1 minute contact exposure; FIG. 32
Description: Micro efficacy of PFA according to the present invention was evaluated under low temperature, low oxygen conditions employing the formulation of Table 41.
The log reduction of L. monocytogenes (ATCC 19114, 19116 and 4594) were evaluated at low temperature (4° C.) comparing peroxvacetic acid to the peroxyformic acid generated according to the formulation shown in Table 41. The results are shown in FIG. 32 comparing disinfectant efficacy after a 1 minute contact exposure to the disinfectants.
As a result, the performic acid generated has a great fit for application in brewery plants. The exceptional antimicrobial efficacy of performic acid at low temperature meets the requirement of cold temperature environment of brewery operations, while common biocides including peroxycarboxylic acids such as peracetic acids will suffer the efficacy lose under low temperatures. In addition, formic acid that always coexists with performic acid is a very efficient acidulant, which will help prevent/dissolve beer stone, thus eliminate the additional acid wash. As a further benefit the performic acid composition has very high performic acid to H2O2 ratio, which practically eliminates the O2 that could potentially introduced to the liquid being processed (i.e. beer) and interfere with the organoleptic effects and negative taste effects.

[11] = 180 ppm PFA, pH 8.76, 10 minutes, raw beef brisket
[12] = 220 ppm POAA, pH 8.86, 10 minutes, raw beef brisket

Structure (SMILES): O=COO [PFA, peroxyformic acid]
- Log reduction ([1]; 2 ppm PFA): 3.01
- Log reduction ([1]; 8.5 ppm PFA): 5.69
- Log reduction ([1]; 10 ppm PFA): 5.28
- Average Log CFU/cm2 [2, 11]: 3.22 Log CFU/cm2
- Log reduction [2, 11]: 0.83
- CFU/cm2 [2, 11]: 1.84E+03 CFU/cm2 and 1.42E+03 CFU/cm2 and 1.72E+03 CFU/cm2
- CFU/ml [2, 11]: 9.20E+02 CFU/ml and 7.10E+02 CFU/ml and 8.60E+02 CFU/ml
- Log CFU/cm2 [2, 11]: 3.26 Log CFU/cm2 and 3.15 Log CFU/cm2 and 3.24 Log CFU/cm2
- Result (Passing Requirement 4 log reduction) ([3]; EN 13624, Aspergillus brasiliensis ATCC 1604, 450 ppm PFA pH 6-7): PASS
- Result (Passing Requirement 4 log reduction) ([3]; EN 13624, Canidia albicans ATCC 10231, 450 ppm PFA pH 6-7): PASS
- Result (Passing Requirement 3 log reduction) ([3]; EN 13704, Bacillus subtilis ATCC 6633, 450 ppm PFA pH 6-7): PASS
- Result (Passing Requirement 5 log reduction) ([3]; Enterococcus hirae ATCC 10541, 450 ppm PFA pH 6-7): PASS
- Result (Passing Requirement 5 log reduction) ([3]; P. aeruginosa ATCC 15442, 450 ppm PFA pH 6-7): PASS
- Result (Passing Requirement 5 log reduction) ([3]; Staph. Aureus ATCC 6538, 450 ppm PFA pH 6-7): PASS
- Result (Passing Requirement 4 log reduction) ([3]; pH 6): PASS
- % Protection, 3 hrs after dosing ([4]; produced water (PW)): −237.2%
- % Protection, 8 hrs after dosing ([4]; produced water (PW)): −228.1%
- % Protection, Last hour of testing ([4]; produced water (PW)): −261.2%
- % Protection, 3 hrs after dosing ([4]; sea water): −10666.2%
- % Protection, 8 hrs after dosing ([4]; sea water): −13447.5%
- % Protection, Last hour of testing ([4]; sea water): −14481.9%
- % Kill [5]: 87.9%
- Average CFU/mL ([6]; 20 ppm PFA × 1.25, pH 6.61): 6.30E+03 CFU/mL
- Log10 Growth ([6]; 20 ppm PFA × 1.25, pH 6.61): 3.80
- Average CFU/mL ([6]; 30 ppm PFA × 1.25, pH 6.74): 2.15E+02 CFU/mL
- Log10 Growth ([6]; 30 ppm PFA × 1.25, pH 6.74): 2.33
- Average CFU/mL ([6]; 50 ppm PFA × 1.25, pH 6.60): <140 CFU/mL
- Log10 Growth ([6]; 50 ppm PFA × 1.25, pH 6.60): <2.15
- Average CFU/mL ([7]; 20 ppm PFA × 1.25, pH 6.61): <140 CFU/mL
- Log10 Growth ([7]; 20 ppm PFA × 1.25, pH 6.61): <2.15
- Average CFU/mL ([7]; 30 ppm PFA × 1.25, pH 6.74): <140 CFU/mL
- Log10 Growth ([7]; 30 ppm PFA × 1.25, pH 6.74): <2.15
- Average CFU/mL ([7]; 50 ppm PFA × 1.25, pH 6.60): <140 CFU/mL
- Log10 Growth ([7]; 50 ppm PFA × 1.25, pH 6.60): <2.15
- Average CFU/mL ([8]; 20 ppm PFA × 1.25, pH 6.61): <140 CFU/mL
- Log10 Growth ([8]; 20 ppm PFA × 1.25, pH 6.61): <2.15
- Average CFU/mL ([8]; 30 ppm PFA × 1.25, pH 6.74): <140 CFU/mL
- Log10 Growth ([8]; 30 ppm PFA × 1.25, pH 6.74): <2.15
- Average CFU/mL ([8]; 50 ppm PFA × 1.25, pH 6.60): <140 CFU/mL
- Log10 Growth ([8]; 50 ppm PFA × 1.25, pH 6.60): <2.15
- reduction of bacteria [9]: ≥ 2 log
- disinfectant efficacy at the lower temperature (in words) [10]: does not decrease

Structure (SMILES): CC(=O)OO [POAA, peroxyacetic acid, reference compound]
- Average Log CFU/cm2 [2, 12]: 2.98 Log CFU/cm2
- Log reduction [2, 12]: 1.06
- CFU/cm2 [2, 12]: 1.20E+03 CFU/cm2 and 9.00E+02 CFU/cm2 and 8.00E+02 CFU/cm2
- CFU/ml [2, 12]: 6.00E+02 CFU/ml and 4.50E+02 CFU/ml and 4.00E+02 CFU/ml
- Log CFU/cm2 [2, 12]: 3.08 Log CFU/cm2 and 2.95 Log CFU/cm2 and 2.90 Log CFU/cm2
- Log reduction ([2]; 220 ppm POAA, pH 8.86, dip for 10 minutes, ambient): 1.06
- Average CFU/mL ([6]; 24.8 ppm POAA × 1.25, pH 6.73): >3.30E+05 CFU/mL
- Log10 Growth ([6]; 24.8 ppm POAA × 1.25, pH 6.73): >5.52
- Average CFU/mL ([6]; 37.6 ppm POAA × 1.25, pH 6.90): 9.25E+03 CFU/mL
- Log10 Growth ([6]; 37.6 ppm POAA × 1.25, pH 6.90): 3.97
- Average CFU/mL ([6]; 62.4 ppm POAA × 1.25, pH 6.98): <140 CFU/mL
- Log10 Growth ([6]; 62.4 ppm POAA × 1.25, pH 6.98): <2.15
- Average CFU/mL ([7]; 24.8 ppm POAA × 1.25, pH 6.73): <140 CFU/mL
- Log10 Growth ([7]; 24.8 ppm POAA × 1.25, pH 6.73): <2.15
- Average CFU/mL ([7]; 37.6 ppm POAA × 1.25, pH 6.90): <140 CFU/mL
- Log10 Growth ([7]; 37.6 ppm POAA × 1.25, pH 6.90): <2.15
- Average CFU/mL ([7]; 62.4 ppm POAA × 1.25, pH 6.98): <140 CFU/mL
- Log10 Growth ([7]; 62.4 ppm POAA × 1.25, pH 6.98): <2.15
- Average CFU/mL ([8]; 24.8 ppm POAA × 1.25, pH 6.73): 1.77E+05 CFU/mL
- Log10 Growth ([8]; 24.8 ppm POAA × 1.25, pH 6.73): 5.25
- Average CFU/mL ([8]; 37.6 ppm POAA × 1.25, pH 6.90): <140 CFU/mL
- Log10 Growth ([8]; 37.6 ppm POAA × 1.25, pH 6.90): <2.15
- Average CFU/mL ([8]; 62.4 ppm POAA × 1.25, pH 6.98): <140 CFU/mL
- Log10 Growth ([8]; 62.4 ppm POAA × 1.25, pH 6.98): <2.15
- disinfectant efficacy at the lower temperature (in words) [10]: significantly decreases

From US10899707B2, “Methods for forming peroxyformic acid and uses thereof” (ECOLAB USA INC., priority 2014, dated 2021)
